Measurements as given in US7332279B2 (Glycozym APS, priority 1999, dated 2008).

What was measured:
β3Gal-T1 = biological target: T1, β3Gal-T1 (Homo sapiens, UniProt Q9Y5Z6); assay: Activity of full coding construct of β3Gal-T1 expressed in Sf9 cells (Triton CF54 homogenates or media); assay type: biochemical; settings: 60 hrs post-infection, acceptor 20 mM
T1 construct: Full length enzymes were assayed with 1% Triton CF54 homogenates of washed cells; made in house; host or cells: Sf9 cells, baculovirus
T1 sequence (Q9Y5Z6 1-326): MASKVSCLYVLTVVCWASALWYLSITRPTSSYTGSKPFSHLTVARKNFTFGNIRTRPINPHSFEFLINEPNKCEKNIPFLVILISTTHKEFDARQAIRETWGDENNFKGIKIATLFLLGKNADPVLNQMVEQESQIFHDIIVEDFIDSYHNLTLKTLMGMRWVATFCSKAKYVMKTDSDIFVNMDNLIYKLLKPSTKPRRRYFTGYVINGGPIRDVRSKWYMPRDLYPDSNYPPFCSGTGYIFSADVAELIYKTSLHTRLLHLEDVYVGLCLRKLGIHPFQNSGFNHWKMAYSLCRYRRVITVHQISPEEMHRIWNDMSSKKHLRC

β3Gal-T5 = biological target: T2, β3Gal-T5 (Homo sapiens, UniProt Q9Y2C3, M85T); assay: Activity of full coding construct of β3Gal-T5 expressed in Sf9 cells (Triton CF54 homogenates or media); assay type: biochemical; settings: 60 hrs post-infection, acceptor 20 mM
T2 construct: Full length enzymes were assayed with 1% Triton CF54 homogenates of washed cells; made in house; host or cells: Sf9 cells, baculovirus (pVL1193)
T2 sequence (Q9Y2C3 1-310 M85T): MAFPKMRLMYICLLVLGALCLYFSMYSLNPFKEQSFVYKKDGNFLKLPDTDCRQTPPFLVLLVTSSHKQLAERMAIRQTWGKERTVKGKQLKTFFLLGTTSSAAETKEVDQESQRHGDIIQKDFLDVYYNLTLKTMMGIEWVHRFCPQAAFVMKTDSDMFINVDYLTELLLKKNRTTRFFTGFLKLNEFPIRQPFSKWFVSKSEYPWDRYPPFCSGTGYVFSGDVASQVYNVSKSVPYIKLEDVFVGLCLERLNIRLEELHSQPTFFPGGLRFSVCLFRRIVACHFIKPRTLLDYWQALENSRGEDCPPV
Source text: PCR product was cloned into the BamHI site of pAcGP67B (Pharmingen). […] This PCR product was cloned into the BamHI site of pVL1193 (Pharmingen). Both soluble and full length constructs were fully sequenced to confirm fidelity. Plasmids […]5-full were co-transfected with Baculo-GoldTM DNA (Pharmingen) as described previously (Bennett, […]. and Clausen, H. cDNA cloning and expression of a novel human UDP-N-acetyl-alpha-D-galactosamine. Polypeptide N-acetyl-galactosaminyl-transferase, GalNAc-T3. J. Biol. Chem. 271:17006-17012, 1996). Recombinant Baculo-virus were obtained after two successive amplifications in Sf9 cells grown in serum-containing medium, and titers of virus were estimated by titration in 24-well plates with monitoring of enzyme activities. […] J. Biol. […] J. Biol. […] Polypeptide N-acetyl-galactosaminyl-transferase, GalNAc-T3. J. Biol. Chem. 271:17006-17012, 1996). For large scale expression amplified virus was used to infect High FiveTM cells grown in serum-free media (Invitrogen) in upright roller bottles shaking at 140 rpm and 27° C. The kinetic properties were determined with partially purified, secreted forms of the enzymes. […] Reaction products were quantified by Dowex-1 chromatography. […] The transfer of Gal was evaluated after acid precipitation by filtration through Whatman GF/C glass fibre filters. […]

CC(=O)N[C@H]1[C@H](OCc2ccccc2)O[C@H](CO)[C@@H](O)[C@@H]1O [β-D-GlcNAc-Bzl] was tested, and the “β3Gal-T1 full coding construct activity, Cells” value (β3Gal-T1; 1% Triton CF54 cell homogenate) was 7.2 nmol/min/mL, the “β3Gal-T1 full coding construct activity, Media” value (β3Gal-T1; media) was 0.2 nmol/min/mL and the “β3Gal-T5 full coding construct activity, Cells” value (β3Gal-T5; 1% Triton CF54 cell homogenate) was 1.5 nmol/min/mL. For the same compound, the “β3Gal-T5 full coding construct activity, Media” value (β3Gal-T5; media) was 0.1 nmol/min/mL.
